{
  "source": "patent EP2229935A1",
  "about": "“Peptide derivatives or pharmaceutically acceptable salts thereof, method for producing the same, use of said derivatives and pharmaceutical composition” (Nebolsin, Vladimir Evgenievich, priority 1997, dated 1999)",
  "tested_on": "P-450 and B5 cytochromes",
  "test": "Hepatic content of P-450 and B5 cytochromes (microsomal liver fraction)",
  "format": "in vivo, guinea pigs",
  "details": "guinea pig liver microsomes; administered three times 72, 48 and 24 hours before",
  "description": "Change in hepatic monooxygenase system was studied on mongrel male guinea pigs with initial mass 250-300 g; each group included 12 animals. […]. The content of P-450 and […] cytochromes was measured according to the published method [Omura T., Scato R. The monooxide binding pigment of liver microsomes. 11. Solubilization, purification and properties. J. Chem. (1964), Vol. 239, pp. 2379-2385] in microsomal liver fraction, isolated using differential centrifugation method [Ahokas J., Pelkonen O., Karkin N. Charcaterisation of BP-hydroxylase of Trout-liver. Cancer Res. (1977), Vol. 37, pp. 3737-3743]. The priority method {Izotov M.V., Scherbakov V.M., Devichensky V.M. et al. The method of determining the content of P-450 cytochrome isoenzymes in liver microsomes. The inventor's certificate No 1,488,738. B.I. (1989), No 3.-6.06.09, ICI, 01. - No 33/15, No 33/48]. Microsomal protein content was determined using the modified Lowry method [Hartree E. Determination of protein: a modification of the Lowry method, that gives a linear photometric responces. Ann. Biochem. (1972), Vol. 48, pp. 422-427].",
  "note": "Marks after values point to notes of the source that are not given here.",
  "data": [
    {"smiles": "O=C(O)CCCC(=O)NCCc1c[nH]cn1", "note": "[compound III, N-GLUTARYLHISTAMINE]", "values": [
      {"measurement": "B5 /P-450", "value": "0.97*"},
      {"measurement": "B5 cytochrome nM/mg of protein", "value": "1.00 ± 0.03 nM/mg of protein"},
      {"measurement": "P-450B cytochromes nM/mg of protein", "value": "0.72 ± 0.02 nM/mg of protein"},
      {"measurement": "P-450B/p-450L", "value": "2.32**"}
    ]}
  ]
}
